This is an account of results in US9522159B2, “Treatment and prevention of P. aeruginosa infections using coformycin analogs” (Albert Einstein College of Medicine, Inc., priority 2012, dated 2016).

Where “and” joins values, the source holds several entries; their conditions need not be identical. Identical values can stand only once. Entries after “also recorded” stand apart in the source; their conditions may differ. Like-named read-outs stand apart in the source and are kept apart here.

In series [1] the target is T1, PaMTADA (Pseudomonas aeruginosa, UniProt Q9HZ64).
T1 sequence (Q9HZ64 1-444): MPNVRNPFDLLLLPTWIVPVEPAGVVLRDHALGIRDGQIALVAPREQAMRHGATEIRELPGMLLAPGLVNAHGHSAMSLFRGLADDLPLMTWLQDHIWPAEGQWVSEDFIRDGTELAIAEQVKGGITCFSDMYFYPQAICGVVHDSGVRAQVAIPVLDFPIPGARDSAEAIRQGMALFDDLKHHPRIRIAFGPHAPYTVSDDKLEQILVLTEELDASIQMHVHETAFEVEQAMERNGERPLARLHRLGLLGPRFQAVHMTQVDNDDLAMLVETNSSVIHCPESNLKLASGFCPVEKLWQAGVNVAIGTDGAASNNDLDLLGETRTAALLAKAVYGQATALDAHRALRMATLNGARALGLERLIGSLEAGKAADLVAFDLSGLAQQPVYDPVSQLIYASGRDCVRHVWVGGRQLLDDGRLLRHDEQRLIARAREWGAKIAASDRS
Description: Inhibition assays for PaMTADA. The series is classed as biochemical. The source says:
(§1) Inhibition assays. […] Controls having no enzyme and no inhibitor were included in all of the inhibition assays. The inhibition constant was obtained by fitting initial rates with variable inhibitor concentrations to equation (1) using GraFit 5 (Erithacus Software): […]
(§2) The inhibitor concentration was corrected using equation (2) when it was less than 10 times of the enzyme concentration (20): […]

The target of a further series is T2, human MTAP (Homo sapiens, UniProt Q13126).
T2 sequence (Q13126 1-283): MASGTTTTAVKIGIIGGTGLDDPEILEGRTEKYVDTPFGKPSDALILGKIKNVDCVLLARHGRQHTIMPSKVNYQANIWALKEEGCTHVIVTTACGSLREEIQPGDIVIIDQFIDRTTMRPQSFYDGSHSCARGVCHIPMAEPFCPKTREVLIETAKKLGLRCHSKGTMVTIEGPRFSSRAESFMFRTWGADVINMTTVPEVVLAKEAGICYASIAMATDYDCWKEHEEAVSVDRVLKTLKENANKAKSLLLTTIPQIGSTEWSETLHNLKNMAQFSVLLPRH
The series can be described thus: Inhibition assays of HsMTAP. The series is classed as biochemical. The procedure:
(§3) Enzymatic assays. […] Deaminase activity on guanosine was measured at 260 nm with an extinction coefficient of 3.9 mM^−1cm^−1 (18). […] The extinction coefficient is 15.5 mM^−1cm^−1 at 305 nm. Reactions of deaminase were carried out at 25° C. in 1 cm cuvettes. Assay mixtures of 1 mL contained 50 mM Hepes, pH 7.4, 100 mM NaCl, 100 μg/mL BSA, variable concentrations of substrate, and appropriate amounts of purified PaMTADA. Reactions were initiated by addition of enzyme and the initial rates were monitored with a CARY 300 UV-Visible spectrophotometer. Control rates (no PaMTADA) were subtracted from initial rates. Kinetic parameters of PaMTADA were obtained by fitting initial rates to the Michaelis-Menten equation using GraFit 5 (Erithacus Software).
as §1, §2

A further series has as its target E. coli MTAN (Escherichia coli, UniProt P0AF12). Description: Inhibition assays of EcMTAN. The series is classed as biochemical.
Series [2] addresses T1, PaMTADA. Description: Inhibition of PaMTADA activity in P. aeruginosa cell lysates ([8-14C]MTA degradation). The series is classed as biochemical, Pseudomonas aeruginosa PAO1. The procedure:
(§4) Inhibition of cellular PaMTADA activity. Inhibition of PaMTADA activity in cell lysates was carried out as follows. P. aeruginosa PAO1 (ATCC number: 15692) was grown at 37° C. to stationary phase in LB medium for 16 hours. Cells were collected by centrifugation at 16,100 g and washed three times with 100 mM phosphate, pH 7.4. Cells were lysed using BugBuster reagent (Novagen). […] Reaction mixtures were quenched with perchloric acid (1.8 M final concentration) and neutralized with potassium hydroxide. Precipitates were removed by centrifugation and carrier hypoxanthine, adenine, MTI, and MTA were added to the supernatant. Separation of the metabolites was carried out on a C18 Luna HPLC column (Phenomenex) with a gradient of 5 to 52.8% acetonitrile in 20 mM triethylamine acetate, pH 5.2. The UV absorbance at 260 nm was monitored. […] Fractions were collected in scintillation vials, dried, reconstituted in 200 μL deionized water prior to addition of 10 mL ULTIMA GOLD LSC-Cocktail scintillation fluid. The cpm of ^14C was counted at 20 min per cycle for three cycles using a Tri-Carb 2910TR liquid scintillation analyzer. Cell lysate was replaced by lysis buffer in reaction mixtures in control experiments. […] All other procedures were the same as described above.
(§5) [formula] where y is the percentage of degraded MTA at certain [I] […] Results and Discussion
Inhibition of cellular PaMTADA activity. […]

The target in series [3] is T1, PaMTADA. Description: Inhibition of cellular PaMTADA activity, MTCF added to LB medium during growth. Format: cell-based, Pseudomonas aeruginosa PAO1. The protocol:
as §4, §5
(§6) Two hypotheses were considered for this activity. […] Second, the residual activity might arise from diffusional release of the inhibitor during the dilution (and incubation) of a small volume of cell extract into the larger volume of lysis buffer and other incubation buffer.

The subject of another series is P. aeruginosa PAO1. The series can be described thus: Growth of P. aeruginosa PAO1 with or without MTCF (OD600). Format: cell-based, Pseudomonas aeruginosa PAO1. As to conditions: up to 1 μM, 36 hours at 37° C. The procedure:
as §6

The target of series [4] is T3, human MTA phosphorylase (MTAP) (Homo sapiens, UniProt Q13126).
T3 sequence (Q13126 1-283): T2 sequence (Q13126 1-283)
Description: Degradation of MTCF by human MTA phosphorylase. Format: biochemical. The procedure:
as §3
(§7) MTCF was examined to test if it might be metabolized by other enzymes related to MTA metabolism, namely by human MTA phosphorylase (MTAP) and E. coli MTA nucleosidase (MTAN).

Series [5] has as its target E. coli MTA nucleosidase (MTAN) (Escherichia coli, UniProt P0AF12). The series can be described thus: Degradation of MTCF by E. coli MTA nucleosidase. Format: biochemical. The procedure: as §3, §7
Series [6] has as its target T4, Human ADA (Homo sapiens, UniProt P00813).
T4 sequence (P00813 1-363): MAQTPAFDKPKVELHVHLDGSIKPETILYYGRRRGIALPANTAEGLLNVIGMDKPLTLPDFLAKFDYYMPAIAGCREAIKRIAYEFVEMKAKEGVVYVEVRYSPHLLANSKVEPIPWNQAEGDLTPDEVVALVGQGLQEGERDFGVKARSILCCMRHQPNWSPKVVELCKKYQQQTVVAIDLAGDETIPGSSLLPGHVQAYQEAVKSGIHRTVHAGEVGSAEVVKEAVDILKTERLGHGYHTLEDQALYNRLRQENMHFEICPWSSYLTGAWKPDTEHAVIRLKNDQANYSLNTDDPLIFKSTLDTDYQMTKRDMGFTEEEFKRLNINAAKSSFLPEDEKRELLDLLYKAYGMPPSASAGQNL
The following applies: cited from earlier work; for Ki: equilibrium dissociation constant, from Tyler et al. (15); for inhibitory effect on human ADA: result in words.

Series [7] addresses T5, PfADA (Plasmodium falciparum, UniProt Q8IJA9).
T5 sequence (Q8IJA9 1-367): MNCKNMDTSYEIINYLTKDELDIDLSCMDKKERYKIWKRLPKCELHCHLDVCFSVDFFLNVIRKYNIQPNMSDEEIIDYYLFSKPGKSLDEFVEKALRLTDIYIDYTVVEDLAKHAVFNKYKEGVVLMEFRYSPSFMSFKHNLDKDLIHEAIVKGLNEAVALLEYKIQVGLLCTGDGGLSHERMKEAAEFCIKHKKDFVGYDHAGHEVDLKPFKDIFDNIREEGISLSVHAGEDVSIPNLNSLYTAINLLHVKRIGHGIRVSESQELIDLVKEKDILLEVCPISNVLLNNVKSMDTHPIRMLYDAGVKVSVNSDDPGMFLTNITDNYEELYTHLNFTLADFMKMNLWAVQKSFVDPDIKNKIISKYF
The series can be described thus: PfADA inhibition, Ki values from Tyler et al. The series is classed as biochemical. As to conditions: times weaker than CF.

Series [8] has as its target T5, PfADA. The following applies: cited from earlier work.
Series [9] concerns the target T1, PaMTADA. Description: Deaminase activity of PaMTADA on substrates (enzymatic assays). The series is classed as biochemical. The following applies: for deaminase activity on substrate: PaMTADA (recombinant PA3170), result in words. The protocol: as §3
In series [10] the target is T4, Human ADA. As to conditions: substrate, from Tyler et al. (15); cited from earlier work.
For series [11], the system named is CC(O)[C@H]1O[C@@H](n2cnc3c(N)ncnc32)[C@H](S)[C@@H]1O. Description: purified protein, by the assay type. The following applies: other: PaMTADA, substrate, 25° C., pH 7.4.
Where [12] appears, read: equilibrium dissociation constant, from Tyler et al. (15), read-out: PfADA Ki.
Setting [13] is: PaMTADA, substrate, 25° C., pH 7.4.

The IC50 is the concentration that gives 50% inhibition. Higher therefore signals lower potency. As a reminder, the Km is the concentration of substrate that gives half-maximal velocity. As usually defined, the kcat is the number of substrate molecules converted per active site and unit of time at saturation.

E. coli MTAN, sequence (P0AF12 whole entry): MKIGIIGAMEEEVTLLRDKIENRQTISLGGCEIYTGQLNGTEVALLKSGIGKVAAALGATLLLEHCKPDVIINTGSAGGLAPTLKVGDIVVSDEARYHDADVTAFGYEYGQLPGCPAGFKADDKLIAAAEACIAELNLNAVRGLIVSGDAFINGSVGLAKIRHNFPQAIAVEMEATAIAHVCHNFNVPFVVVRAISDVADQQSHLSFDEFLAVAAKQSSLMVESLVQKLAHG
E. coli MTA nucleosidase (MTAN), sequence (P0AF12 whole entry): as above

Take `OC[C@H]1O[C@@H](n2cnc3c2N=CNC[C@H]3O)[C@H](O)[C@@H]1O` [Coformycin (CF), Coformycin]: on PaMTADA [1] (equilibrium dissociation constant (Ki or Ki*), 25° C., pH 7.4, 100 μM MTA, read-out: PaMTADA Ki), the Ki was 90 ± 10 nM.

In turn, `OC[C@H]1O[C@@H](n2cnc3c2NC=NC[C@H]3O)C[C@@H]1O` [DCF, 2′-deoxycoformycin, reference compound] returned a Ki on PaMTADA [1] of 37 nM.

`CSC[C@H]1O[C@@H](n2cnc3c2N=CNC[C@H]3O)[C@H](O)[C@@H]1O` [MTCF, 5′-methylthiocoformycin]: the Ki on human MTAP was 3000 nM; at E. coli MTAN, more than 5000 nM; on Human ADA [6], more than 10000 nM. Besides, the “inhibition of human MTA phosphorylase” value against human MTAP (result in words) is “no significant inhibition; also recorded: no significant inhibitory effects”. The “degradation of MTA” value on PaMTADA [2] (50 nM inhibitor in cell lysate) is “completely blocked”. Moreover, the IC50 on PaMTADA [2] (MTCF added to P. aeruginosa cell lysate, [8-14C]MTA degradation, 20 min) came out at 4 nM; against PaMTADA [3] (MTCF in LB medium during growth, corrected for residual activity), 3 nM. Besides, the “concentration at which maximal inhibition was achieved” value at PaMTADA [3] (MTCF in LB medium) worked out at 10 nM. Moreover, the PaMTADA activity entry on PaMTADA [3] (cells grown with 500 nM MTCF in LB, 100 nM MTCF added to cell lysate) is given as “All PaMTADA activity was inhibited”. Further, the “permeability to P. aeruginosa cells” value on PaMTADA [3] (inferred from inhibition after growth in MTCF-containing LB) is “permeable”. The “effect on cell growth” value in the series with P. aeruginosa PAO1 was “no effect”. Besides, the “degradation of MTCF, kobs” value in [4] and in series [5] was less than 0.001 s⁻¹ each time. For the same compound, on Human ADA [6], the “inhibitory effect on human ADA” value is “no significant inhibition; also recorded: no significant inhibitory effects”.

Turning to `CSCC1OC(n2cnc3c2N=CNCC3O)CC1O` (centres unmarked) [MTDCF, 5′-methylthio-2′-deoxycoformycin], the Ki on PaMTADA [1] is 0.008 nM; on PfADA [8] (setting [12]), 0.7 ± 0.2 nM; at PfADA [8] (from (15), read-out: PfADA Ki / equilibrium dissociation constant) it was 0.7 nM; on Human ADA [6], more than 10000 nM. Besides, at PfADA [7], the “binding affinity for PfADA relative to CF” value worked out at 9 times. Besides, the “inhibitory effect on human ADA” value on Human ADA [6] is “no inhibitory effect”.

For `O[C@@H]1CNC=Nc2c1ncn2[C@H]1C[C@H](O)[C@@H](CSc2ccccc2)O1` [PhTDCF, 5′-phenylthio-2′-deoxycoformycin], the Ki at PaMTADA [1] (25° C., pH 7.4, 100 μM MTA, read-out: PaMTADA Ki / dissociation constant) was 0.13 nM; at PfADA [8] (setting [12]) it was 60 nM.

With `CCCSCC1OC(n2cnc3c2N=CNCC3O)CC1O` (centres unmarked) [PrTDCF, 5′-propylthio-2′-deoxycoformycin], the figures for the Ki on PaMTADA [1] and on Human ADA [6] were 0.067 nM and more than 10000 nM, respectively. The “binding to PaMTADA relative to MTDCF” value at PaMTADA [1] (times weaker than MTDCF) is on record as 8 times. In addition, at PfADA [7], the “binding affinity for PfADA relative to CF” value is given as 150 times.

With `Nc1ncnc2c1ncn2[C@@H]1O[C@H](CSCC[C@H](N)C(=O)O)[C@@H](O)[C@H]1O` [SAH, S-adenosylhomocysteine], on PaMTADA [9], the “deaminase activity on substrate” value is “inactive”.

As for `Nc1ncnc2nc[nH]c12` [adenine], the “deaminase activity on substrate” value at PaMTADA [9] is “inactive”.

On to `Nc1ncnc2c1ncn2[C@@H]1O[C@H](CO)[C@@H](O)[C@H]1O` [adenosine], for which, at PaMTADA [9] (setting [13]), the Michaelis constant (Km) was found to be 46 µM; the catalytic constant (kcat) is 17 s⁻¹ and 17 ± 1 s⁻¹. Further, at Human ADA [10], the Km is 22 ± 3 µM and the kcat is 36 ± 1 s⁻¹.

With `Nc1nc2c(ncn2[C@@H]2O[C@H](CO)[C@@H](O)[C@H]2O)c(=O)[nH]1` [guanosine], the “deaminase activity on substrate” value on PaMTADA [9] is “inactive”.

Take PaMTADA (Pseudomonas aeruginosa PAO1): in [11], the Km is 1.5 µM, the kcat is 24.6 ± 0.8 s⁻¹ and the kcat/Km is recorded as 160 ± 30 ×10^5 M^−1s^−1.
